Source: patent US20070049564A1 (Wyeth, priority 2005, published 2007)
≈ marks a conversion by molar mass, not a printed value. Read-outs that look alike come from different tables or passages of the source.

Experiments:
E. coli GC 2271 = test: MIC, broth microdilution; settings: Escherichia coli, GC2271, E. coli GC 2271
E. coli GC 2235 = test: MIC, broth microdilution; settings: Escherichia coli, GC2235, E. coli GC 2235
Staph. aureus Smith = test: In vivo activity (oral, iv; ED50) against Staph. aureus Smith in mice
Method: Representative examples of compounds of Formula I were tested for the oral efficacy using S. aureus Smith in mice.

P. aeruginosa GC 2214 = test: MIC, broth microdilution; settings: Pseudomonas aeruginosa, GC2214, P. aeruginosa GC 2214
E. coli GC 2234 = test: MIC, broth microdilution; settings: Escherichia coli, GC2234, E. coli GC 2234
S. epidermidis GC 4935 = test: MIC, broth microdilution; settings: Staphylococcus epidermidis, GC4935, S. epidermidis GC 4935
S. aureus GC 1131 = test: MIC, broth microdilution; settings: Staphylococcus aureus, GC1131, S. aureus GC 1131
E. coli GC 2270 = test: MIC, broth microdilution; settings: Escherichia coli, GC2270, E. coli GC 2270
E. coli GC 1073 = test: MIC, broth microdilution; settings: Escherichia coli, GC1073, E. coli GC 1073
S. aureus GC 6335 = test: MIC, broth microdilution; settings: Staphylococcus aureus, GC6335, S. aureus GC 6335
S. aureus GC 1079 = test: MIC, broth microdilution; settings: Staphylococcus aureus, GC1079, S. aureus GC 1079
E. faecium GC 4556 = test: MIC, broth microdilution; settings: Enterococcus faecium, GC4556, E. faecium GC 4556
Method: Antimicrobial susceptibility testing. The in vitro activities of the antibiotics are determined by the broth microdilution method as recommended by the National Committee for Clinical Laboratory Standards (NCCLS) (1). Mueller-Hinton II broth (MHBII)(BBL Cockeysville, Md.) is the medium employed in the testing procedures. Microtiter plates containing serial dilutions of each antimicrobial agent are inoculated with each organism to yield the appropriate density (10^5 CFU/ml) in a 100 μl final volume. The plates are incubated for 18-22 hours at 35° C. in ambient air.
Representative compounds were first incubated in mouse serum for an hour prior to the in vitro testing against a panel of selected gram-positive and gram-negative bacteria strains. All compounds were also pre-incubated in water for an hour prior to testing as control. Representative compounds of Formula I were incubated in human serum prior to MIC determination.

E. faecalis GC 2242 = test: MIC, broth microdilution; settings: Enterococcus faecalis, GC2242, E. faecalis GC 2242
S. pneumoniae+ GC 4465 = test: MIC, broth microdilution; settings: Streptococcus pneumoniae, S. pneumoniae+ GC 4465
S. pyogenes GC 4563 = test: MIC, broth microdilution; settings: Streptococcus pyogenes, GC4563, S. pyogenes GC 4563
E. coli GC 2236 = test: MIC, broth microdilution; settings: Escherichia coli, GC2236, E. coli GC 2236
c. albicans GC 3066 = test: MIC, broth microdilution
E. coli GC 4559 = test: MIC, broth microdilution; settings: Escherichia coli, GC4559, E. coli GC 4559
S. aureus GC 2216 = test: MIC, broth microdilution; settings: Staphylococcus aureus, GC2216, S. aureus GC 2216
E. coli GC 2233 = test: MIC, broth microdilution; settings: Escherichia coli, GC2233, E. coli GC 2233
[1] = Staphylococcus aureus, in Mus musculus, po, read-out: ED50 Staph Smith SOD
[2] = iv, read-out: ED50 Staph Smith SIV
[3] = c. albicans GC 3066, Water pre-incubation

SMILES	MIC (E. coli GC 2271; Mouse Serum pre-incubation)	MIC (E. coli GC 2271; Water pre-incubation)	MIC (E. coli GC 2235; Mouse Serum pre-incubation)	MIC (E. coli GC 2235; Water pre-incubation)	ED50 (Staph. aureus Smith; [1])	ED50 (Staph. aureus Smith; [2])	MIC (P. aeruginosa GC 2214; Mouse Serum pre-incubation)	MIC (P. aeruginosa GC 2214; Water pre-incubation)	MIC (E. coli GC 2234; Mouse Serum pre-incubation)	MIC (E. coli GC 2234; Water pre-incubation)	MIC (S. epidermidis GC 4935; Mouse Serum pre-incubation)	MIC (S. epidermidis GC 4935; Water pre-incubation)	MIC (S. aureus GC 1131; Mouse Serum pre-incubation)	MIC (S. aureus GC 1131; Water pre-incubation)	MIC (E. coli GC 2270; Mouse Serum pre-incubation)	MIC (E. coli GC 2270; Water pre-incubation)	MIC (E. coli GC 1073; Mouse Serum pre-incubation)	MIC (E. coli GC 1073; Water pre-incubation)	MIC (S. aureus GC 6335; Mouse Serum pre-incubation)	MIC (S. aureus GC 6335; Water pre-incubation)	other results
CCCN(CC(=O)Nc1cc(N(C)C)c2c(c1O)C(=O)C1=C(O)[C@]3(O)C(=O)C(C(N)=O)=C(O)[C@@H](N(C)C)[C@@H]3C[C@@H]1C2)C(=O)OCOC(=O)Cc1ccccc1 [Example 11, ({[(2-{[(5aR,6aS,7S,10aS)-9-(aminocarbonyl)-4,7-bis(dimethylamino)-1,8,10a,11′-tetrahydroxy-10,12-dioxo-5,5a,6,6a,7,10,10a,12-octahydrotetracen-2-yl]amino}-2-oxoethyl)(propyl)amino]carbonyl}oxy)methyl phenylacetate]	0.25 µg/mL (≈ 0.327 µM)	4 µg/mL (≈ 5.24 µM)	0.25 µg/mL (≈ 0.327 µM)	4 µg/mL (≈ 5.24 µM)	30.3 mg/kg	0.59 mg/kg	16 µg/mL (≈ 20.9 µM)	> 64 µg/mL	0.5 µg/mL (≈ 0.655 µM)	16 µg/mL (≈ 20.9 µM)	1 µg/mL (≈ 1.31 µM)	2 µg/mL (≈ 2.62 µM)	0.25 µg/mL (≈ 0.327 µM)	0.25 µg/mL (≈ 0.327 µM)	0.5 µg/mL (≈ 0.655 µM)	8 µg/mL (≈ 10.5 µM)	0.5 µg/mL (≈ 0.655 µM)	16 µg/mL (≈ 20.9 µM)	1 µg/mL (≈ 1.31 µM)	1 µg/mL (≈ 1.31 µM)	MIC (S. aureus GC 1079; Mouse Serum pre-incubation): 2 µg/mL (≈ 2.62 µM); MIC (S. aureus GC 1079; Water pre-incubation): 4 µg/mL (≈ 5.24 µM); MIC (E. faecium GC 4556; Mouse Serum pre-incubation): 0.25 µg/mL (≈ 0.327 µM); MIC (E. faecium GC 4556; Water pre-incubation): 0.5 µg/mL (≈ 0.655 µM); MIC (E. faecalis GC 2242; Mouse Serum pre-incubation): 0.25 µg/mL (≈ 0.327 µM); MIC (E. faecalis GC 2242; Water pre-incubation): 0.5 µg/mL (≈ 0.655 µM); MIC (S. pneumoniae+ GC 4465; Mouse Serum pre-incubation): 2 µg/mL (≈ 2.62 µM); MIC (S. pneumoniae+ GC 4465; Water pre-incubation): 2 µg/mL (≈ 2.62 µM); MIC (S. pyogenes GC 4563; Mouse Serum pre-incubation): < 0.06 µg/mL; MIC (S. pyogenes GC 4563; Water pre-incubation): < 0.06 µg/mL; MIC (E. coli GC 2236; Mouse Serum pre-incubation): 0.5 µg/mL (≈ 0.655 µM); MIC (E. coli GC 2236; Water pre-incubation): 8 µg/mL (≈ 10.5 µM); MIC (c. albicans GC 3066; Candida albicans, GC3066): > 64 µg/mL; MIC (c. albicans GC 3066; [3]): >64 UG/ML; MIC (E. coli GC 4559; Mouse Serum pre-incubation): 0.5 µg/mL (≈ 0.655 µM); MIC (E. coli GC 4559; Water pre-incubation): 32 µg/mL (≈ 41.9 µM); MIC (S. aureus GC 2216; Mouse Serum pre-incubation): 0.5 µg/mL (≈ 0.655 µM); MIC (S. aureus GC 2216; Water pre-incubation): 0.5 µg/mL (≈ 0.655 µM); MIC (E. coli GC 2233; Mouse Serum pre-incubation): 0.25 µg/mL (≈ 0.327 µM); MIC (E. coli GC 2233; Water pre-incubation): 8 µg/mL (≈ 10.5 µM)
CCCCN(CC(=O)Nc1cc(N(C)C)c2c(c1O)C(=O)C1=C(O)[C@]3(O)C(=O)C(C(N)=O)=C(O)[C@@H](N(C)C)C3CC1C2)C(=O)OCOC(=O)c1ccc(OC)cc1 (stereo partly drawn) [Example 2, ({[(2-{[(7S,10aS)-9-(aminocarbonyl)-4,7-bis(dimethylamino)-1,8,10a,11-tetrahydroxy-10,12-dioxo-5,5a,6,6a,7,10,10a,12-octahydrotetracen-2-yl]amino}-2-oxoethyl)(butyl)amino]carbonyl}oxy)methyl 4-methoxybenzoate]	1 µg/mL (≈ 1.26 µM)	64 µg/mL (≈ 80.6 µM)	2 µg/mL (≈ 2.52 µM)	64 µg/mL (≈ 80.6 µM)	13.3 mg/kg	0.71 mg/kg	> 64 µg/mL	> 64 µg/mL	1 µg/mL (≈ 1.26 µM)	64 µg/mL (≈ 80.6 µM)	8 µg/mL (≈ 10.1 µM)	8 µg/mL (≈ 10.1 µM)	2 µg/mL (≈ 2.52 µM)	4 µg/mL (≈ 5.04 µM)	1 µg/mL (≈ 1.26 µM)	64 µg/mL (≈ 80.6 µM)	4 µg/mL (≈ 5.04 µM)	64 µg/mL (≈ 80.6 µM)	8 µg/mL (≈ 10.1 µM)	8 µg/mL (≈ 10.1 µM)	MIC (S. aureus GC 1079; Mouse Serum pre-incubation): 8 µg/mL (≈ 10.1 µM); MIC (S. aureus GC 1079; Water pre-incubation): 8 µg/mL (≈ 10.1 µM); MIC (E. faecium GC 4556; Mouse Serum pre-incubation): 4 µg/mL (≈ 5.04 µM); MIC (E. faecium GC 4556; Water pre-incubation): 8 µg/mL (≈ 10.1 µM); MIC (E. faecalis GC 2242; Mouse Serum pre-incubation): 4 µg/mL (≈ 5.04 µM); MIC (E. faecalis GC 2242; Water pre-incubation): 4 µg/mL (≈ 5.04 µM); MIC (S. pneumoniae+ GC 4465; Mouse Serum pre-incubation): 2 µg/mL (≈ 2.52 µM); MIC (S. pneumoniae+ GC 4465; Water pre-incubation): 4 µg/mL (≈ 5.04 µM); MIC (S. pyogenes GC 4563; Mouse Serum pre-incubation): 0.25 µg/mL (≈ 0.315 µM); MIC (S. pyogenes GC 4563; Water pre-incubation): 0.25 µg/mL (≈ 0.315 µM); MIC (E. coli GC 2236; Mouse Serum pre-incubation): 4 µg/mL (≈ 5.04 µM); MIC (E. coli GC 2236; Water pre-incubation): 32 µg/mL (≈ 40.3 µM); MIC (c. albicans GC 3066; Candida albicans, GC3066): > 64 µg/mL; MIC (c. albicans GC 3066; [3]): >64 UG/ML; MIC (E. coli GC 4559; Mouse Serum pre-incubation): 1 µg/mL (≈ 1.26 µM); MIC (E. coli GC 4559; Water pre-incubation): 64 µg/mL (≈ 80.6 µM); MIC (S. aureus GC 2216; Mouse Serum pre-incubation): 2 µg/mL (≈ 2.52 µM); MIC (S. aureus GC 2216; Water pre-incubation): 4 µg/mL (≈ 5.04 µM); MIC (E. coli GC 2233; Mouse Serum pre-incubation): 1 µg/mL (≈ 1.26 µM); MIC (E. coli GC 2233; Water pre-incubation): 64 µg/mL (≈ 80.6 µM)
CCCN(CC(=O)Nc1cc(N(C)C)c2c(c1O)C(=O)C1=C(O)[C@]3(O)C(=O)C(C(N)=O)=C(O)[C@@H](N(C)C)[C@@H]3C[C@@H]1C2)C(=O)OCOC(=O)C(C)(C)C [Example 9, ({[(2-{[(5aR,6aS,7S,10aS)-9-(aminocarbonyl)-4,7-bis(dimethylamino)-1,8,10a,11-tetrahydroxy-10,12-dioxo-5,5a,6,6a,7,10,10a,12-octahydrotetracen-2-yl]amino}-2-oxoethyl)(propyl)amino]carbonyl}oxy)methyl pivalate]	0.5 µg/mL (≈ 0.685 µM)	8 µg/mL (≈ 11 µM)	0.5 µg/mL (≈ 0.685 µM)	4 µg/mL (≈ 5.48 µM)	11.3 mg/kg	0.32 mg/kg	16 µg/mL (≈ 21.9 µM)	> 64 µg/mL	0.5 µg/mL (≈ 0.685 µM)	8 µg/mL (≈ 11 µM)	0.25 µg/mL (≈ 0.343 µM)	1 µg/mL (≈ 1.37 µM)	< 0.06 µg/mL	0.25 µg/mL (≈ 0.343 µM)	0.5 µg/mL (≈ 0.685 µM)	4 µg/mL (≈ 5.48 µM)	1 µg/mL (≈ 1.37 µM)	8 µg/mL (≈ 11 µM)	0.25 µg/mL (≈ 0.343 µM)	0.5 µg/mL (≈ 0.685 µM)	MIC (S. aureus GC 1079; Mouse Serum pre-incubation): 2 µg/mL (≈ 2.74 µM); MIC (S. aureus GC 1079; Water pre-incubation): 1 µg/mL (≈ 1.37 µM); MIC (E. faecium GC 4556; Mouse Serum pre-incubation): 0.25 µg/mL (≈ 0.343 µM); MIC (E. faecium GC 4556; Water pre-incubation): 0.5 µg/mL (≈ 0.685 µM); MIC (E. faecalis GC 2242; Mouse Serum pre-incubation): 0.5 µg/mL (≈ 0.685 µM); MIC (E. faecalis GC 2242; Water pre-incubation): 1 µg/mL (≈ 1.37 µM); MIC (S. pneumoniae+ GC 4465; Mouse Serum pre-incubation): 2 µg/mL (≈ 2.74 µM); MIC (S. pneumoniae+ GC 4465; Water pre-incubation): 2 µg/mL (≈ 2.74 µM); MIC (S. pyogenes GC 4563; Mouse Serum pre-incubation): < 0.06 µg/mL; MIC (S. pyogenes GC 4563; Water pre-incubation): < 0.06 µg/mL; MIC (E. coli GC 2236; Mouse Serum pre-incubation): 1 µg/mL (≈ 1.37 µM); MIC (E. coli GC 2236; Water pre-incubation): 8 µg/mL (≈ 11 µM); MIC (c. albicans GC 3066; Candida albicans, GC3066): > 64 µg/mL; MIC (c. albicans GC 3066; [3]): >64 UG/ML; MIC (E. coli GC 4559; Mouse Serum pre-incubation): 1 µg/mL (≈ 1.37 µM); MIC (E. coli GC 4559; Water pre-incubation): 8 µg/mL (≈ 11 µM); MIC (S. aureus GC 2216; Mouse Serum pre-incubation): 0.25 µg/mL (≈ 0.343 µM); MIC (S. aureus GC 2216; Water pre-incubation): 0.5 µg/mL (≈ 0.685 µM); MIC (E. coli GC 2233; Mouse Serum pre-incubation): 0.5 µg/mL (≈ 0.685 µM); MIC (E. coli GC 2233; Water pre-incubation): 4 µg/mL (≈ 5.48 µM)
